Laboratory results as given in ChEMBL document CHEMBL1123141, “N-[2-hydroxy-5-[2-(methylamino)ethyl]phenyl]methanesulfonamide. A potent agonist which releases intracellular calcium by activation of alpha 1-adrenoceptors” (J Med Chem, 1985).

What was measured:
[1] = Dissociation constant against constrictor response to the compound blocked competitively by phentolamine for alpha-mediated events; type: functional
[2] = biological target: T1, Alpha-1A adrenergic receptor (Homo sapiens) (UniProt P35348); experiment: Effect of zero external [Ca2+] on the contractions induced by compound in the canine saphenous vein in the presence of 2 mM EGTA and expressed as percent of control response in […] Ca+ physiological saline; absolute concentration 1.5 +/-0.7 X 10e-; type: functional, tissue-based; conditions: Canis lupus familiaris
T1 sequence (whole entry): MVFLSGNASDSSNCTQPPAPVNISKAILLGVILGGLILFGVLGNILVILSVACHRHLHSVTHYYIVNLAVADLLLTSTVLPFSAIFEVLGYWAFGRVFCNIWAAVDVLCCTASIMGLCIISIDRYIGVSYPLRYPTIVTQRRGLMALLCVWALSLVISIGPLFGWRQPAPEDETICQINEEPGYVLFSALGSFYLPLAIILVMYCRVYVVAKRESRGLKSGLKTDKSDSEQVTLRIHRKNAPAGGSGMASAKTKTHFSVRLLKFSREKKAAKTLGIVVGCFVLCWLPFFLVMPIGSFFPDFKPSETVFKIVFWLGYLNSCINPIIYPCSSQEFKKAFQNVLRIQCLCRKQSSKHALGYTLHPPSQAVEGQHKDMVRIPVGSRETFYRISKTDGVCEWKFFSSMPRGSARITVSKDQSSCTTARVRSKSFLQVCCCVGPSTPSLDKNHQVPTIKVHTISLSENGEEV

[3] = biological target: T1, Alpha-1A adrenergic receptor (Homo sapiens); experiment: Effect of zero external [Ca2+] on the contractions induced by acompound in the canine saphenous vein at EC50 concentration experimented in the presence of 2 mM EGTA and expressed as percent of control response in […] Ca+ physiological saline; abso; type: functional, tissue-based; conditions: Canis lupus familiaris
[4] = biological target: T1, Alpha-1A adrenergic receptor (Homo sapiens); experiment: Effect of 1 uM external [Ca2+] on the contractions induced by compound in the canine saphenous vein at EC100 concentration and expressed as percent of control response in […] Ca+; absolute concentration 5.0 X 10e-5 M; type: functional, tissue-based; conditions: Canis lupus familiaris
[5] = biological target: T1, Alpha-1A adrenergic receptor (Homo sapiens); experiment: Effect of 1 uM external [Ca2+] on the contractions induced by compound in the canine saphenous vein at EC50 concentration and expressed as percent of control response in […] Ca+; absolute concentration 5.0 +/- 1.5 X 10e-7 M; type: functional, tissue-based; conditions: Canis lupus familiaris
[6] = biological target: T1, Alpha-1A adrenergic receptor (Homo sapiens); experiment: Effect of zero uM external [Ca2+] on the contractions induced by compound in the canine saphenous vein at EC100 concentration experimented in the presence of 2 mM EGTA and expressed as percent of control response in […] Ca+ physiological saline; absolute concentration 5.0 X 10e-5 M; type: functional, tissue-based; conditions: Canis lupus familiaris
[7] = biological target: T1, Alpha-1A adrenergic receptor (Homo sapiens); experiment: Effect of 1 uM external [Ca2+] on the contractions induced by compound in the canine saphenous vein at EC25 concentration and expressed as percent of control response in […] Ca+; absolute concentration 1.5 +/-0.7 X 10e-7 M; type: functional, tissue-based; conditions: Canis lupus familiaris

For `CNCCc1ccc(O)c(NS(C)(=O)=O)c1`, the Ki [1] was < 20 nM, the Control response [2] was 6% and the Control response [3] was 20.2%. For the same compound, the Control response [4] was 78.3%, the Control response [5] was 37.6% and the Control response [6] was 37.9%. For the same compound, the Control response [7] was 8.1%.
